Source: US5698222A, “Calcium supplement” (Abbott Laboratories, priority 1995, dated 1997)
Counter-ions that a name gives are not always drawn. Like-named read-outs stand apart in the source and are kept apart here. Each block holds one molecule with its values, some of them ahead of it.

Experiments:
[1] = values from Whiting article; cited from earlier work
[2] = titratable acidity of calcium sources; assay type: physicochemical; settings: pH 3.5 raised to pH 8.3, 40 g sample
Excerpt: Acidity is desired in the liquid nutritional product of the present invention for several reasons such as: to maintain the calcium salt solubility, to complement flavor, to control microbial growth, and to enhance the role of preservatives, specifically potassium benzoate or sodium benzoate. On the other hand, too much acidity can result in increased tartness and sourness that make the product undesirable from a sensory point of view. […] Titratable acidity is an indication of the total acidity of a beverage.

[3] = cited from earlier work
[4] = rats, three weeks, as compared to a control; cited from earlier work
[5] = without aluminum-containing drugs; cited from earlier work
[6] = low birth weight infants; cited from earlier work
[7] = piglets; cited from earlier work
[8] = Procedure: In this evaluation solubility was determined by a visual examination.
[9] = large amounts; cited from earlier work

Molecule: O=C(O)O [CaCO3 (from Dolomite)]
Aluminum Content [1]: 171-315 parts per million (ppm)

Molecule: calcium citrate malate
Titratable acidity [2]: 53.2 mL of 0.1N NaOH

Titratable acidity [2]: 47.1 mL of 0.1N NaOH
Molecule: CC(O)C(=O)O (centres unmarked) [Calcium Lactate, calcium lactate]

Molecule: O=C(O)O [CaCO3 (from fossil shell)]
Aluminum Content [1]: 4,400 parts per million (ppm)

Molecule: [Ca+2].[Cl-].[Cl-] [Calcium Chloride, calcium chloride]
Titratable acidity [2]: 0.7 mL of 0.1N NaOH

Molecule: [Ca+2].[OH-].[OH-] [Calcium Hydroxide, calcium hydroxide]
Titratable acidity [2]: 60.6 mL of 0.1N NaOH

Molecule: O=P(O)(O)OCC(O)CO (centres unmarked) [glycerophosphate]
pKf [3]: 6.1

Titratable acidity [2]: 48.6 mL of 0.1N NaOH
Molecule: O=P([O-])([O-])[O-].O=P([O-])([O-])[O-].[Ca+2].[Ca+2].[Ca+2] [Tricalcium Phosphate, tricalcium phosphate]
relative calcium bioavailability [4]: 110%

Molecule: O=C(O)CC(O)(CC(=O)O)C(=O)O [Calcium Citrate, calcium citrate]
Titratable acidity [2]: 57.5 mL of 0.1N NaOH | relative calcium bioavailability [4]: 110% | aluminum toxicity risk [5]: does not pose a risk of aluminum toxicity

Titratable acidity [2]: 43.5 mL of 0.1N NaOH
Molecule: calcium glycerophosphate [CaGP]
effectiveness as source of calcium in TPN solutions [6]: as effective as calcium gluconate | effectiveness as source of calcium in TPN solutions [7]: as effective as calcium gluconate

solubility at time of manufacture ([8]; pH 3.5): soluble | solubility at 1 month ([8]; pH 5): partially Soluble | solubility at time of manufacture ([8]; pH 5): soluble
Molecule: O=C(O)[C@H](O)[C@@H](O)[C@H](O)[C@H](O)CO [D-Gluconic-Acid, D-gluconic acid (hemicalcium salt)]

Molecule: O=C(O)O [Calcium Carbonate, calcium carbonate]
Titratable acidity [2]: 61.4 mL of 0.1N NaOH | adverse effects [9]: can lead to constipation and abdominal distention
